According to publication PMC11355573, “A New Renieramycin T Right-Half Analog as a Small Molecule Degrader of STAT3” (Marine Drugs, 2024):

Tested on: EMT markers (ZO1, ZEB1, Slug, Snail, N-cadherin, Vimentin) in H460 cells
Assay: Immunofluorescence staining of EMT markers
Assay type: cell-based, human
Source text: EMT is a biological process that is associated with cancer progression and the spread of cancer cells to other parts of the body. This mechanism facilitates the motility of cancer cells, enhances anoikis resistance, and contributes to poor prognosis due to its high metastatic potential. Given the critical role of EMT in the metastasis processes, we firstly investigated EMT markers. Therefore, to validate that DH_31 inhibits metastasis, H460 cells were selected to elucidate the mechanism because of their enhanced migration and invasion behavior [36]. H460 cells were exposed to the non-toxic concentration range of 0–2.5 µM of DH_31 for 24 h. Subsequently, the evaluation of EMT expression levels was carried out through the application of immunofluorescence assay and Western blotting. We further investigated key hallmarks of EMT, specifically the reduction in the expression levels of epithelial marker (ZO1) and the increase in the expression levels of mesenchymal markers (Slug, Snail, ZEB1, N-cadherin, and Vimentin). […] The expressions of Snail, N-cadherin, and Vimentin were reduced in a concentration-dependent manner. […] Furthermore, the results from the Western blot analysis confirmed the findings from immunofluorescence staining (Figure 3C). […] The protein alterations in response to DH_31 were clarified.
Immunofluorescence staining and confocal microscopy were conducted to visualize the subcellular localization and spatial distribution of specific proteins. H460 cells (1.0 × 10^4 cells per well) were seeded in 96-well plates. Following overnight incubation, the cells were treated with different concentrations of DH_31 (0–2.5 μM) for 24 h at 37 °C. After treatment, the cells were permeabilized with 0.5% Triton-X in PBS for 5 min, followed by the blocking of non-specific proteins with 10% FBS in 0.1% Triton-X PBS for 1 h at room temperature. Subsequently, the cells were exposed to primary antibodies (STAT3, Slug, Snail, Vimentin, N-cadherin, ZO1, and ZEB1) and incubated at 4 °C overnight. The cells were then incubated with Alexa Fluor 488- or 594-conjugated secondary antibodies and Hoechst 33342 for 1 h at room temperature. After washing with PBS, the cells were covered with 50% glycerol. The images were captured by confocal microscopy (Zeiss, Jena, Germany). The fluorescence intensity was measured using ImageJ™ software (Image J 1.52a, Rasband, W., National Institutes of Health, Bethesda, MD, USA).

For `COc1c(C)cc2c(c1O)[C@@H]1CN(Cc3ccc4ccccc4c3)[C@@H](C#N)[C@H](C2)N1C` [DH_31, (1R,4R,5S)-10-hydroxy-9-methoxy-8,11-dimethyl-3-(naphthalen-2-ylmethyl)-1,2,3,4,5,6-hexahydro-1,5-epiminobenzo[d]azocine-4-carbonitrile], the “ZO1 level (immunofluorescence)” value (H460, 0–2.5 µM, 24 h) was “slightly increased”, the “Vimentin level (immunofluorescence)” value (H460, 1 μM (p < 0.01) and 2.5 μM (p < 0.001), 24 h) was “significant reduction” and the “N-cadherin level (immunofluorescence)” value (H460, 1 μM (p < 0.05) and 2.5 μM (p < 0.001), 24 h) was “significant reduction”. The “Snail level (immunofluorescence)” value (H460, 1 μM and 2.5 μM, 24 h (p < 0.05)) was “significant reduction”, the “Slug protein level (immunofluorescence)” value (H460, 2.5 µM, 24 h (p < 0.05)) was “significant decrease” and the “ZEB1 protein level (immunofluorescence)” value (H460, 2.5 µM, 24 h (p < 0.05)) was “significant decrease”.
